From PubChem BioAssay (NCI)
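Step 1: Grow cells in 96-well plates. Step 2: Expose to compound for 48 hours at 5 concentrations. Step 3: Interpolate endpoints linearly; if unreached, use highest concentration. TGI: total growth inhibition.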

Tests used:
Experiment in all cases: growth of human tumour cells (NCI), 48 h
[1] = system: SNB-19 CNS
[2] = system: SF-295 CNS
[3] = system: K-562 leukemia
[4] = system: OVCAR-4 ovarian
[5] = system: COLO 205 colon
[6] = system: UACC-62 melanoma
[7] = system: ACHN renal
[8] = system: CAKI-1 renal
[9] = system: MALME-3M melanoma
[10] = system: SK-OV-3 ovarian
[11] = system: A498 renal
[12] = system: SW-620 colon
[13] = system: OVCAR-5 ovarian
[14] = system: SK-MEL-2 melanoma
[15] = system: M19-MEL melanoma
[16] = system: RXF-631 renal
[17] = system: NCI-H23 lung
[18] = system: U251 CNS
[19] = system: SK-MEL-28 melanoma
[20] = system: TK-10 renal
[21] = system: OVCAR-3 ovarian
[22] = system: DMS 273 small cell lung
[23] = system: SF-539 CNS
[24] = system: 786-0 renal
[25] = system: OVCAR-8 ovarian
[26] = system: HCT-116 colon
[27] = system: SNB-78 CNS
[28] = system: MOLT-4 leukemia
[29] = system: RPMI-8226 leukemia
[30] = system: DMS 114 small cell lung
[31] = system: HT29 colon
[32] = system: SF-268 CNS
[33] = system: SK-MEL-5 melanoma
[34] = system: SN12C renal
[35] = system: RXF 393 renal
[36] = system: UO-31 renal
[37] = system: EKVX NSCLC
[38] = system: A549 NSCLC
[39] = system: HCT-15 colon
[40] = system: HOP-62 NSCLC
[41] = system: KM20L2 colon
[42] = system: UACC-257 melanoma
[43] = system: NCI-H460 lung
[44] = system: CCRF-CEM leukemia
[45] = system: XF 498 CNS
[46] = system: LOX IMVI melanoma
[47] = system: M14 melanoma
[48] = system: IGROV1 ovarian
[49] = system: HL-60(TB) leukemia
[50] = system: SNB-75 CNS
[51] = system: KM12 colon
[52] = system: LXFL 529 NSCLC
[53] = system: HCC-2998 colon
[54] = system: DLD-1 colon
[55] = system: HOP-92 NSCLC
[56] = system: NCI-H226 lung
[57] = system: SR leukemia

Q: What does the source list for `CCOP(=O)(OCC)C1CC(C)OC1=O` (stereo unspecified)?
A: TGI [1]: > 100 µM; TGI [2]: > 100 µM; TGI [3]: > 100 µM; TGI [4]: > 100 µM; TGI [5]: > 100 µM; TGI [6]: > 100 µM; TGI [7]: > 100 µM; TGI [8]: > 100 µM; TGI [9]: > 100 µM; TGI [10]: > 100 µM; TGI [11]: > 100 µM; TGI [12]: > 100 µM; TGI [13]: > 100 µM; TGI [14]: > 100 µM; TGI [15]: > 100 µM; TGI [16]: > 100 µM; TGI [17]: > 100 µM; TGI [18]: > 100 µM; TGI [19]: > 100 µM; TGI [20]: > 100 µM; TGI [21]: > 100 µM; TGI [22]: > 100 µM; TGI [23]: > 100 µM; TGI [24]: > 100 µM; TGI [25]: > 100 µM; TGI [26]: > 100 µM; TGI [27]: > 100 µM; TGI [28]: > 100 µM; TGI [29]: > 100 µM; TGI [30]: > 100 µM; TGI [31]: > 100 µM; TGI [32]: > 100 µM; TGI [33]: > 100 µM; TGI [34]: > 100 µM; TGI [35]: > 100 µM; TGI [36]: > 100 µM; TGI [37]: > 100 µM; TGI [38]: > 100 µM; TGI [39]: > 100 µM; TGI [40]: > 100 µM; TGI [41]: > 100 µM; TGI [42]: > 100 µM; TGI [43]: > 100 µM; TGI [44]: > 100 µM; TGI [45]: > 100 µM; TGI [46]: > 100 µM; TGI [47]: > 100 µM; TGI [48]: > 100 µM; TGI [49]: > 100 µM; TGI [50]: > 100 µM; TGI [51]: > 100 µM; TGI [52]: > 100 µM; TGI [53]: > 100 µM; TGI [54]: > 100 µM

Q: Which results are given for `O=C(CC1C(=O)Nc2ccccc2S1(=O)=O)Nc1cc(Cl)ccc1Cl` (stereo unspecified)?
A: TGI [55]: 30.4 µM; TGI [1]: 29.8 µM; TGI [2]: 34.4 µM; TGI [3]: 42 µM; TGI [4]: 32.8 µM; TGI [6]: 33.7 µM; TGI [7]: 35.7 µM; TGI [8]: 32 µM; TGI [9]: 40.6 µM; TGI [11]: 31.4 µM; TGI [12]: 40.2 µM; TGI [13]: 71.1 µM; TGI [14]: 35.4 µM; TGI [15]: 34.1 µM; TGI [16]: 88.9 µM; TGI [17]: 40.4 µM; TGI [18]: 22.6 µM; TGI [19]: 41 µM; TGI [20]: 39.9 µM; TGI [21]: 29 µM; TGI [23]: 7.23 µM; TGI [24]: 20.7 µM; TGI [25]: 41.9 µM; TGI [26]: 28 µM; TGI [27]: 33.6 µM; TGI [28]: 23.2 µM; TGI [29]: 13.4 µM; TGI [56]: 35.8 µM; TGI [30]: 27 µM; TGI [31]: 34.3 µM; TGI [32]: 24.4 µM; TGI [33]: 30.3 µM; TGI [34]: 30.2 µM; TGI [35]: 32.7 µM; TGI [36]: 31 µM; TGI [57]: 24.3 µM; TGI [37]: 30 µM; TGI [38]: 33.1 µM; TGI [39]: 27.5 µM; TGI [41]: 32.6 µM; TGI [42]: > 100 µM; TGI [43]: 30.3 µM; TGI [44]: 62.5 µM; TGI [45]: 27.6 µM; TGI [46]: 18.1 µM; TGI [47]: 30.6 µM; TGI [48]: 26.9 µM; TGI [49]: 35.3 µM; TGI [50]: 31 µM; TGI [52]: 27.1 µM; TGI [53]: 36.2 µM; TGI [54]: 33.4 µM
